The experiment addresses human TPH1 (Homo sapiens (Human), UniProt P17752). In words: Biochemical in vitro assay using fluorescence readout (TPH1 inhibition).
Setting [1] is: full length human TPH1, 40 μM L-tryptophan, 15° C., 60 minutes, fluorescence at 540 nm, mean if determined several times.
Where [2] appears, read: human TPH1, fluorescence readout.

Chain of human TPH1 (P17752 whole entry): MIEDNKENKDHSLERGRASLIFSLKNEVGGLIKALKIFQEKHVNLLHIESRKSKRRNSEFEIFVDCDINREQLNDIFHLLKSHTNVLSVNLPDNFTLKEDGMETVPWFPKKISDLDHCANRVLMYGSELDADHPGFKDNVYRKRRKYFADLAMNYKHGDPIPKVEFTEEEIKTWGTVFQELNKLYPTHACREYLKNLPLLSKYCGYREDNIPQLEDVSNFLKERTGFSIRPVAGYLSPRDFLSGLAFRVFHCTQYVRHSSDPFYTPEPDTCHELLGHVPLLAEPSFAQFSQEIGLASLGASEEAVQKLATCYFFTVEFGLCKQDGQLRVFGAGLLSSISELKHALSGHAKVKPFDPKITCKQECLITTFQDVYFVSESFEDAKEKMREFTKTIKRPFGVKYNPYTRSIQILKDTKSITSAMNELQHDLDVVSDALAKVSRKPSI

Broadly, the IC50 is the concentration that gives 50% inhibition. `Cc1nn2c3c(nc2s1)CCN(C(=O)COc1ccc(NS(=O)(=O)C2CC2)cc1Cl)C3c1ccc(Cl)cc1F` (stereo not drawn) [Example 1.4.30, N-(3-Chloro-4-(2-(5-(4-chloro-2-fluorophenyl)-2-methyl-7,8-dihydro-[1,3,4]thiadiazolo[2′,3′:2,3]imidazo[4,5-c]pyridin-6(5H)-yl)-2-oxoethoxy)phenyl)cyclo-propanesulfonamide] returned an IC50 under setting [1] of 10 nM. Under setting [2], `COc1ccc(C2c3c(nc4sc(C)nn34)CCN2C(=O)COc2ccc(CN3CCOCC3)nc2Cl)c(F)c1` (stereo not drawn) [Example 1.3.2, 2-((2-chloro-6-(morpholinomethyl)pyridin-3-yl)oxy)-1-(5-(2-fluoro-4-methoxyphenyl)-2-methyl-7,8-dihydro-[1,3,4]thiadiazolo[2′,3′:2,3]imidazo[4,5-c]pyridin-6(5H)-yl)ethanone] came in with an IC50 of 9 nM. Take `COCCN(C)c1ccc(OCC(=O)N2CCc3nc4sc(C)nn4c3C2c2ccc(Cl)cc2F)c(Cl)n1` (stereo not drawn) [Example 1.4.14, 1-(5-(4-Chloro-2-fluorophenyl)-2-methyl-7,8-dihydro-[1,3,4]thiadiazolo[2′,3′:2,3]imidazo[4,5-c]pyridin-6(5H)-yl)-2-((2-chloro-6-((2-methoxyethyl)(methyl)-amino)pyridin-3-yl)oxy)ethanone]: under setting [1], the IC50 was determined as 3 nM. Under setting [2], `CCc1cc(Cl)ccc1OCC(=O)N1CCc2nc3sccn3c2C1c1c(C)nn(C)c1C` (stereo not drawn) [Example 6.15.4, 2-(4-chloro-2-ethylphenoxy)-1-(5-(1,3,5-trimethyl-1H-pyrazol-4-yl)-7,8-dihydrothiazolo[2′,3′:2,3]imidazo[4,5-c]pyridin-6(5H)-yl)ethanone] gave an IC50 of 102 nM. Same read-out and setting: next, `CNC(=O)c1ccc(OCC(=O)N2CCc3nc4sc(C)nn4c3C2c2ncc(Cl)cc2F)c(Cl)n1` (stereo not drawn) [Example 1.33.5, 6-chloro-5-(2-(5-(5-chloro-3-fluoropyridin-2-yl)-2-methyl-7,8-dihydro-[1,3,4]thiadiazolo[2′,3′:2,3]imidazo[4,5-c]pyridin-6(5H)-yl)-2-oxoethoxy)-N-methylpicolinamide]: 6 nM. Same read-out and setting: next, `Cc1nn2c3c(nc2s1)CCN(C(=O)COc1ccc(N2CCOCC2)nc1Cl)C3c1nc(-c2ccccc2)no1` (stereo not drawn) [Example 1.11.3, 2-((2-chloro-6-morpholinopyridin-3-yl)oxy)-1-(2-methyl-5-(3-phenyl-1,2,4-oxadiazol-5-yl)-7,8-dihydro-[1,3,4]thiadiazolo [2′,3′:2,3]imidazo[4,5-c]pyridin-6(5H)-yl)ethanone]: 4 nM. Same read-out and setting: next, `CCc1nc(N2CCCS2(=O)=O)ccc1OCC(=O)N1CCc2nc3sc(C(F)(F)F)nn3c2C1c1sc(C)nc1C` (stereo not drawn) [Example 5.4.1, 1-(5-(2,4-dimethylthiazol-5-yl)-2-(trifluoromethyl)-7,8-dihydro-[1,3,4]thiadiazolo[2′,3′:2,3]imidazo[4,5-c]pyridin-6(5H)-yl)-2-((6-(1,1-dioxidoisothiazolidin-2-yl)-2-ethylpyridin-3-yl)oxy)ethanone]: 25 nM; `Cc1nn2c3c(nc2s1)CCN(C(=O)COc1cccnc1Cl)C3c1ccc(C2CC2)cc1F` (stereo not drawn) [Example 1.6.11, 2-((2-chloropyridin-3-yl)oxy)-1-(5-(4-cyclopropyl-2-fluorophenyl)-2-methyl-7,8-dihydro-[1,3,4]thiadiazolo[2′,3′:2,3]imidazo[4,5-c]pyridin-6(5H)-yl)ethanone]: 14 nM; `Cc1nn2c3c(nc2s1)CCN(C(=O)COc1ccc(NS(C)(=O)=O)nc1Cl)C3c1ccc(Cl)cc1F` (stereo not drawn) [Example 1.4.39, N-(6-chloro-5-(2-(5-(4-chloro-2-fluorophenyl)-2-methyl-7,8-dihydro-[1,3,4]thiadiazolo[2′,3′:2,3]imidazo[4,5-c]pyridin-6(5H)-yl)-2-oxoethoxy)pyridin-2-yl)methanesulfonamide]: 5 nM.

With `CS(=O)(=O)Nc1ccc(OCC(=O)N2CCc3nc4scnn4c3C2c2ccc(Cl)cc2F)c(Cl)n1` (stereo not drawn) [Example 2.1.1, N-(6-chloro-5-(2-(5-(4-chloro-2-fluorophenyl)-7,8-dihydro-[1,3,4]thiadiazolo[2′,3′:2,3]imidazo[4,5-c]-pyridin-6(5H)-yl)-2-oxoethoxy)pyridin-2-yl)methanesulfonamide], the IC50 under setting [2] is 11 nM.

For the compound `Cc1nn2c3c(nc2s1)CCN(C(=O)COc1ccc(N2CCOCC2)nc1Cl)C3c1ncccc1F` (stereo not drawn) [Example 1.35.1, 2-((2-chloro-6-morpholinopyridin-3-yl)oxy)-1-(5-(3-fluoropyridin-2-yl)-2-methyl-7,8-dihydro-[1,3,4]thiadiazolo [2′,3′:2,3]imidazo[4,5-c]pyridin-6(5H)-yl)ethanone], half-maximal inhibition under setting [2] (IC50) required 6 nM. This IC50 lies about 1.8-fold lower than the previous one. Still for that read-out and setting: as for `O=C(COc1ccc(C(F)(F)F)nc1Cl)N1CCc2nc3sccn3c2C1c1ncc(C2CC2)cc1F` (stereo not drawn) [Example 6.7.1, 2-((2-chloro-6-(trifluoromethyl)pyridin-3-yl)oxy)-1-(5-(5-cyclopropyl-3-fluoropyridin-2-yl)-7,8-dihydrothiazolo-[2′,3′:2,3]imidazo[4,5-c]pyridin-6(5H)-yl)ethanone], the figure is 11 nM; as for `CNC(=O)c1cc(F)c(C2c3c(nc4sc(C)nn34)CCN2C(=O)COc2ccc(C(N)=O)nc2Cl)s1` (stereo not drawn) [Example 1.25.6, 6-chloro-5-(2-(5-(3-fluoro-5-(methylcarbamoyl)thiophen-2-yl)-2-methyl-7,8-dihydro-[1,3,4]thiadiazolo[2′,3′:2,3]imidazo[4,5-c]pyridin-6(5H)-yl)-2-oxoethoxy)picolinamide], 8 nM. Under setting [2], `CCc1nc(C(=O)NC2CC2)ccc1OCC(=O)N1CCc2nc3sc(C(F)F)nn3c2C1c1sc(C)nc1C` (stereo not drawn) [Example 8.3.1, N-cyclopropyl-5-(2-(2-(difluoromethyl)-5-(2,4-dimethylthiazol-5-yl)-7,8-dihydro-[1,3,4]thiadiazolo[2′,3′:2,3]imidazo[4,5-c]pyridin-6(5H)-yl)-2-oxoethoxy)-6-ethylpicolinamide] registered an IC50 of 11 nM.

The compound `Cc1nn2c3c(nc2s1)CCN(C(=O)COc1ccc(N2CC(F)(F)C2)nc1Cl)C3c1ccc(Cl)cc1F` (stereo not drawn) [Example 1.4.18, 1-(5-(4-Chloro-2-fluorophenyl)-2-methyl-7,8-dihydro-[1,3,4]thiadiazolo[2′,3′:2,3]imidazo[4,5-c]pyridin-6(5H)-yl)-2-((2-chloro-6-(3,3-difluoroazetidin-1-yl)-pyridin-3-yl)oxy)ethanone] came in with an IC50 under setting [1] of 3 nM. This lies in the single-digit nanomolar range.

The compound `Cc1ccc(OCC(=O)N2CCc3nc4sccn4c3C2c2cnn(-c3ccccc3)c2)cc1` (stereo not drawn) [Example 6.13.3, 1-(5-(1-phenyl-1H-pyrazol-4-yl)-7,8-dihydrothiazolo-[2′,3′:2,3]imidazo[4,5-c]pyridin-6(5H)-yl)-2-(p-tolyl-oxy)ethanone] showed an IC50 under setting [2] of 53 nM. As for `CCc1nc(C)ccc1OCC(=O)N1CCc2nc3sc(C)nn3c2C1c1ccc(C2CC2)cc1F` (stereo not drawn) [Example 1.6.8, 1-(5-(4-cyclopropyl-2-fluorophenyl)-2-methyl-7,8-dihydro-[1,3,4]thiadiazolo[2′,3′:2,3]imidazo[4,5-c]pyridin-6(5H)-yl)-2-((2-ethyl-6-methylpyridin-3-yl)oxy)ethanone], the midpoint of inhibition under setting [2], the IC50, lay at 23 nM.

In the case of `CCc1nc(N2CCCS2(=O)=O)ccc1OCC(=O)N1CCc2nc3sc(C(F)F)nn3c2C1c1sc(C)nc1C` (stereo not drawn) [Example 8.3.2, 1-(2-(difluoromethyl)-5-(2,4-dimethylthiazol-5-yl)-7,8-dihydro-[1,3,4]thiadiazolo[2′,3′:2,3]imidazo[4,5-c]pyridin-6(5H)-yl)-2-((6-(1,1-dioxidoisothiazolidin-2-yl)-2-ethylpyridin-3-yl)oxy)ethanone], the IC50 under setting [2] was determined as 13 nM.

Consider `Cc1nn2c3c(nc2s1)CCN(C(=O)COc1ccc(N2CCOCC2)nc1Cl)C3c1ncc(C2CC2)cc1F` (stereo not drawn) [Example 1.14.1, 2-((2-chloro-6-morpholinopyridin-3-yl)oxy)-1-(5-(5-cyclopropyl-3-fluoropyridin-2-yl)-2-methyl-7,8-dihydro-[1,3,4]thiadiazolo[2′,3′:2,3]imidazo[4,5-c]pyridin-6(5H)-yl)ethanone], for which the IC50 under setting [2] amounted to 4 nM.

As to `Cc1nn2c3c(nc2s1)CCN(C(=O)COc1ccc(C(=O)N(C)C)nc1Cl)C3c1ccc(F)cc1F` (stereo not drawn) [Example 1.55.1, 6-chloro-5-(2-(5-(2,4-difluorophenyl)-2-methyl-7,8-dihydro-[1,3,4]thiadiazolo[2′,3′:2,3]imidazo[4,5-c]pyridin-6(5H)-yl)-2-oxoethoxy)-N,N-dimethylpicolinamide], the IC50 under setting [2] was 19 nM. On the same count and under the same terms, next, `Cc1nn2c3c(nc2s1)CCN(C(=O)COc1ccc(CN2CCOCC2)nc1Cl)C3c1ccc(Cl)cc1F` (stereo not drawn) [Example 1.4.1, 1-(5-(4-chloro-2-fluorophenyl)-2-methyl-7,8-dihydro-[1,3,4]thiadiazolo[2′,3′:2,3]imidazo[4,5-c]pyridin-6(5H)-yl)-2-((2-chloro-6-(morpholinomethyl)pyridin-3-yl)oxy)ethanone]: 9 nM; `CNC(=O)c1cc(F)c(C2c3c(nc4sc(C)nn34)CCN2C(=O)COc2ccc(NS(C)(=O)=O)nc2Cl)s1` (stereo not drawn) [Example 1.25.7, 5-(6-(2-((2-chloro-6-(methylsulfonamido)pyridin-3-yl)oxy)acetyl)-2-methyl-5,6,7,8-tetrahydro-[1,3,4]thiadiazolo [2′,3′:2,3]imidazo[4,5-c]pyridin-5-yl)-4-fluoro-N-methylthiophene-2-carboxamide]: 7 nM; `CNS(=O)(=O)Nc1ccc(OCC(=O)N2CCc3nc4sc(C)nn4c3C2c2ccc(Cl)cc2F)c(Cl)n1` (stereo not drawn) [Example 1.4.52, N-(6-chloro-5-(2-(5-(4-chloro-2-fluorophenyl)-2-methyl-7,8-dihydro-[1,3,4]thiadiazolo[2′,3′:2,3]imidazo[4,5-c]pyridin-6(5H)-yl)-2-oxoethoxy)pyridin-2-yl)-N′-methyl-sulfamide]: 38 nM. In turn, `Cc1nn2c3c(nc2s1)CCN(C(=O)COc1ccc(N2CC(F)(F)C2)nc1Cl)C3c1sccc1F` (stereo not drawn) [Example 1.23.8, 2-((2-chloro-6-(3,3-difluoroazetidin-1-yl)pyridin-3-yl)oxy)-1-(5-(3-fluorothiophen-2-yl)-2-methyl-7,8-dihydro-[1,3,4]thiadiazolo[2′,3′:2,3]imidazo[4,5-c]pyridin-6(5H)-yl)ethanone] displayed an IC50 under setting [2] of 6 nM.

The values above are taken from patent publication US9765092B2, “Tricyclic piperidine compounds” (ACTELION PHARMACEUTICALS LTD, priority 2013, dated 2017).
